Assays:
LSD1 knockout JHH7 cells = test: Proliferation of LSD1 knockout JHH7 cells after ZY0511; format: cell-based, human; conditions: ZY0511 treatment for 96 h
Experimental: Cell viability was determined using Cell Counting Kit‐8 (CCK8; Dojindo) or 3‐(4, 5‐dimethylthiazol‐2‐yl)‐2,5‐diphenyltetrazoliumbromide (MTT, Sigma Aldrich) assay. […] Consequently, cell viability was determined using a microplate reader (Thermo Fisher) at 450 nm for CCK8 assay, or 570 nm for MTT assay, at different time points. The IC50 values and CI values were analyzed and calculated using GraphPad Prism 8 and CompuSyn (version 1.0; http://www.combosyn.com), respectively.

MELK = target: T1, MELK (Homo sapiens, UniProt Q14680); test: Kinase activity detection (Eurofins); format: biochemical; conditions: ZY0511 1 µM, read-out: Inhibition rate
T1 construct: purchased Eurofins Pharma Discovery Services
Experimental: (§1) The activity of ZY0511 against 104 cancer‐related kinases was carried out by Eurofins Pharma Discovery Services (Celle Lévescault, France).

cKit (D816H) = target: T2, cKit (D816H) (Homo sapiens, UniProt P10721, D816H); test: Kinase activity detection (Eurofins); format: biochemical; conditions: ZY0511 1 µM, read-out: Activation rate
T2 construct: purchased Eurofins Pharma Discovery Services (KinaseProfiler)
Experimental: as §1

PKCε = target: T3, PKCε (Homo sapiens, UniProt Q02156); test: Kinase activity detection (Eurofins); format: biochemical; conditions: ZY0511 1 µM, read-out: Inhibition rate
T3 construct: purchased Eurofins Pharma Discovery Services (KinaseProfiler)
Experimental: as §1

PDGFRα = target: T4, PDGFRα (Homo sapiens, UniProt P16234); test: Kinase activity detection (Eurofins); format: biochemical; conditions: ZY0511 1 µM, read-out: Activation rate
T4 construct: purchased Eurofins Pharma Discovery Services (KinaseProfiler)
Experimental: as §1

Wee1 = target: T5, Wee1 (Homo sapiens, UniProt P30291); test: Kinase activity detection (Eurofins); format: biochemical; conditions: ZY0511 1 µM, read-out: Activation rate
T5 construct: purchased Eurofins Pharma Discovery Services (KinaseProfiler)
Experimental: as §1

DDR2 = target: T6, DDR2 (Homo sapiens, UniProt Q16832); test: Kinase activity detection (Eurofins); format: biochemical; conditions: ZY0511 1 µM, read-out: Inhibition rate
T6 construct: purchased Eurofins Pharma Discovery Services (KinaseProfiler)
Experimental: as §1

CSK = target: T7, CSK (Homo sapiens, UniProt P41240); test: Kinase activity detection (Eurofins); format: biochemical; conditions: ZY0511 1 µM, read-out: Inhibition rate
T7 construct: purchased Eurofins Pharma Discovery Services (KinaseProfiler)
Experimental: as §1

Fer = target: T8, Fer (Homo sapiens, UniProt P16591); test: Kinase activity detection (Eurofins); format: biochemical; conditions: ZY0511 1 µM, read-out: Inhibition rate
T8 construct: purchased Eurofins Pharma Discovery Services (KinaseProfiler)
Experimental: as §1

[1] = target: T9, PI3 Kinase (p110α (H1047R)/p85α) (Homo sapiens, UniProt P42336, H1047R); test: Kinase activity detection (Eurofins); format: biochemical; conditions: ZY0511 1 µM, read-out: Inhibition rate
T9 construct: purchased Eurofins Pharma Discovery Services (KinaseProfiler)
Experimental: as §1

IKKα = target: T10, IKKα (Homo sapiens, UniProt O15111); test: Kinase activity detection (Eurofins); format: biochemical; conditions: ZY0511 1 µM, read-out: Activation rate
T10 construct: purchased Eurofins Pharma Discovery Services (KinaseProfiler)
Experimental: as §1

MST3 = target: T11, MST3 (Homo sapiens, UniProt Q9Y6E0); test: Kinase activity detection (Eurofins); format: biochemical; conditions: ZY0511 1 µM, read-out: Inhibition rate
T11 construct: purchased Eurofins Pharma Discovery Services (KinaseProfiler)
Experimental: as §1

Ron = target: T12, Ron (Homo sapiens, UniProt Q04912); test: Kinase activity detection (Eurofins); format: biochemical; conditions: ZY0511 1 µM, read-out: Activation rate
T12 construct: purchased Eurofins Pharma Discovery Services (KinaseProfiler)
Experimental: as §1

ErbB2 = target: T13, ErbB2 (Homo sapiens, UniProt P04626); test: Kinase activity detection (Eurofins); format: biochemical; conditions: ZY0511 1 µM, read-out: Activation rate
T13 construct: purchased Eurofins Pharma Discovery Services (KinaseProfiler)
Experimental: as §1

Pim-1 = target: T14, Pim-1 (Homo sapiens, UniProt P11309); test: Kinase activity detection (Eurofins); format: biochemical; conditions: ZY0511 1 µM, read-out: Inhibition rate
T14 construct: purchased Eurofins Pharma Discovery Services (KinaseProfiler)
Experimental: as §1

DCAMKL3 = target: T15, DCAMKL3 (Homo sapiens, UniProt Q9C098); test: Kinase activity detection (Eurofins); format: biochemical; conditions: ZY0511 1 µM, read-out: Inhibition rate
T15 construct: purchased Eurofins Pharma Discovery Services
Experimental: as §1

NIM1 = target: T16, NIM1 (Homo sapiens, UniProt Q8IY84); test: Kinase activity detection (Eurofins); format: biochemical; conditions: ZY0511 1 µM, read-out: Inhibition rate
T16 construct: purchased Eurofins Pharma Discovery Services
Experimental: as §1

Flt3 (D835Y) = target: T17, Flt3 (D835Y) (Homo sapiens, UniProt P36888, D835Y); test: Kinase activity detection (Eurofins); format: biochemical; conditions: ZY0511 1 µM, read-out: Inhibition rate
T17 construct: purchased Eurofins Pharma Discovery Services
Experimental: as §1

Abl (T315I) = target: T18, Abl (T315I) (Homo sapiens, UniProt P00519, T315I); test: Kinase activity detection (Eurofins); format: biochemical; conditions: ZY0511 1 µM, read-out: Inhibition rate
T18 construct: purchased Eurofins Pharma Discovery Services
Experimental: as §1

IGF-1R = target: T19, IGF-1R (Homo sapiens, UniProt P08069); test: Kinase activity detection (Eurofins); format: biochemical
T19 construct: purchased Eurofins Pharma Discovery Services
Experimental: as §1

CK1γ3 = target: T20, CK1γ3 (Homo sapiens, UniProt Q9Y6M4); test: Kinase activity detection (Eurofins); format: biochemical; conditions: ZY0511 1 µM, read-out: Inhibition rate
T20 construct: purchased Eurofins Pharma Discovery Services (KinaseProfiler)
Experimental: as §1

Axl = target: T21, Axl (Homo sapiens, UniProt P30530); test: Kinase activity detection (Eurofins); format: biochemical; conditions: ZY0511 1 µM, read-out: Activation rate
T21 construct: purchased Eurofins Pharma Discovery Services (KinaseProfiler)
Experimental: as §1

PAK4 = target: T22, PAK4 (Homo sapiens, UniProt O96013); test: Kinase activity detection (Eurofins); format: biochemical; conditions: ZY0511 1 µM, read-out: Inhibition rate
T22 construct: purchased Eurofins Pharma Discovery Services (KinaseProfiler)
Experimental: as §1

Abl = target: T23, Abl (Homo sapiens, UniProt P00519); test: Kinase activity detection (Eurofins); format: biochemical; conditions: ZY0511 1 µM, read-out: Inhibition rate
T23 construct: purchased Eurofins Pharma Discovery Services
Experimental: as §1

CDK1/CyclinB = target: T24, CDK1/CyclinB (Homo sapiens, UniProt P06493); test: Kinase activity detection (Eurofins); format: biochemical; conditions: ZY0511 1 µM, read-out: Activation rate
T24 construct: purchased Eurofins Pharma Discovery Services (KinaseProfiler)
Experimental: as §1

EGFR (T790M) = target: T25, EGFR (T790M) (Homo sapiens, UniProt P00533, T790M); test: Kinase activity detection (Eurofins); format: biochemical; conditions: ZY0511 1 µM
T25 construct: purchased Eurofins Pharma Discovery Services (KinaseProfiler)
Experimental: as §1

Hck = target: T26, Hck (Homo sapiens, UniProt P08631); test: Kinase activity detection (Eurofins); format: biochemical; conditions: ZY0511 1 µM, read-out: Inhibition rate
T26 construct: purchased Eurofins Pharma Discovery Services (KinaseProfiler)
Experimental: as §1

FGFR1 = target: T27, FGFR1 (Homo sapiens, UniProt P11362); test: Kinase activity detection (Eurofins); format: biochemical; conditions: ZY0511 1 µM, read-out: Activation rate
T27 construct: purchased Eurofins Pharma Discovery Services (KinaseProfiler)
Experimental: as §1

PDGFRα (D842V) = target: T28, PDGFRα (D842V) (Homo sapiens, UniProt P16234, D842V); test: Kinase activity detection (Eurofins); format: biochemical; conditions: ZY0511 1 µM, read-out: Activation rate
T28 construct: purchased Eurofins Pharma Discovery Services (KinaseProfiler)
Experimental: as §1

Hep3B = test: MTT assay, ZY0511 and DTP3; format: cell-based; conditions: Homo sapiens, 96 h, read-out: Inhibition rate
Experimental: (§2) Cell viability was determined using Cell Counting Kit‐8 (CCK8; Dojindo) or 3‐(4, 5‐dimethylthiazol‐2‐yl)‐2,5‐diphenyltetrazoliumbromide (MTT, Sigma Aldrich) assay. A selection of HCC cells was exposed to gradient concentration of ZY0511 for 96–144 h, or exposed to other LSD1 inhibitors including SP2509, GSK2879552, and ORY1001 for 144 h, or exposed to DTP3, which enhanced the apoptosis induction function of GADD45B for 96 h in combination therapy. Consequently, cell viability was determined using a microplate reader (Thermo Fisher) at 450 nm for CCK8 assay, or 570 nm for MTT assay, at different time points. The IC50 values and CI values were analyzed and calculated using GraphPad Prism 8 and CompuSyn (version 1.0; http://www.combosyn.com), respectively.

HepG2 = test: MTT assay, ZY0511 and DTP3; format: cell-based; conditions: Homo sapiens, HepG2, 96 h, read-out: Inhibition rate
Experimental: as §2

T19 sequence (P08069 31-1367, species assumed): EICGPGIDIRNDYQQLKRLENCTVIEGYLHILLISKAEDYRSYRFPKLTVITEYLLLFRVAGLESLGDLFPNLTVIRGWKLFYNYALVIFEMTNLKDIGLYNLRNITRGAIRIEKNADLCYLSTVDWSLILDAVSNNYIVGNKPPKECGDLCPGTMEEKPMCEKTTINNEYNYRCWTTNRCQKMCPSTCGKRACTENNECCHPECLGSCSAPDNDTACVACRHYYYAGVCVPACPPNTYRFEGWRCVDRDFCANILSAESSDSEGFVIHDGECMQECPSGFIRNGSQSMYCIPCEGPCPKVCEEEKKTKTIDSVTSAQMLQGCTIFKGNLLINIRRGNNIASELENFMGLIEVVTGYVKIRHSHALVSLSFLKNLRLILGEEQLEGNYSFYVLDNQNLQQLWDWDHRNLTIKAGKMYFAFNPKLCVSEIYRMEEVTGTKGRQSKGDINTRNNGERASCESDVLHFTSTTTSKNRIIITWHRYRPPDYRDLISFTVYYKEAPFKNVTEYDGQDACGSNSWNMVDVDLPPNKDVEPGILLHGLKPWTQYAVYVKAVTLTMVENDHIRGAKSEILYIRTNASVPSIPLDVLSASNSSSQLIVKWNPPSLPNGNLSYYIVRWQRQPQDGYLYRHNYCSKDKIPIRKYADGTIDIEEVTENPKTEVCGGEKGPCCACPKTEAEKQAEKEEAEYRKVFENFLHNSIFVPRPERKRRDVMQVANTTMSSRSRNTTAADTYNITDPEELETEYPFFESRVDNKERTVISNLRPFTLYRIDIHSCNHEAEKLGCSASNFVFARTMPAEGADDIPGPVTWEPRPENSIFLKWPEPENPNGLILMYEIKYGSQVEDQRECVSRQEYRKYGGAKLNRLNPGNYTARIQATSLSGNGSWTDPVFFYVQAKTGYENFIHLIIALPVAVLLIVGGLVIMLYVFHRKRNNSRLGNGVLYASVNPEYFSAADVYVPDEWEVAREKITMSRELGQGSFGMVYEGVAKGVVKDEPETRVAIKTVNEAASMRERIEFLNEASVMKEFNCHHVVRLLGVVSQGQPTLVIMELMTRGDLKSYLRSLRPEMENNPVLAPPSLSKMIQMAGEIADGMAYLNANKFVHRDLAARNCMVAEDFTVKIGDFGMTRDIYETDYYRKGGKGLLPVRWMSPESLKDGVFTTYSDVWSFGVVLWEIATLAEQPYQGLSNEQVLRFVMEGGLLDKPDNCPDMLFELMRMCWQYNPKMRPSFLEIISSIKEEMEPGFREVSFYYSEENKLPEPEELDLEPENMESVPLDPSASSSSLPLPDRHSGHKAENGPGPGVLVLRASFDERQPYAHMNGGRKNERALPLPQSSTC
T14 sequence (P11309 whole entry): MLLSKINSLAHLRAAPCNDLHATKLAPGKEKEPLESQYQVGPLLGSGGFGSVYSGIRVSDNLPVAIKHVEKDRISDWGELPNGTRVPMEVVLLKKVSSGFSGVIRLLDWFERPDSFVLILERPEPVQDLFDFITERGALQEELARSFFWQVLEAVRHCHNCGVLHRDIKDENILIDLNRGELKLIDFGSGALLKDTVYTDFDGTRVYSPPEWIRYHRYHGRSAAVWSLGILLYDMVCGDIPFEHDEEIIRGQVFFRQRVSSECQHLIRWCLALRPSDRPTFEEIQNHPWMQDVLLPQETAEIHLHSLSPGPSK
T27 sequence (P11362 22-822): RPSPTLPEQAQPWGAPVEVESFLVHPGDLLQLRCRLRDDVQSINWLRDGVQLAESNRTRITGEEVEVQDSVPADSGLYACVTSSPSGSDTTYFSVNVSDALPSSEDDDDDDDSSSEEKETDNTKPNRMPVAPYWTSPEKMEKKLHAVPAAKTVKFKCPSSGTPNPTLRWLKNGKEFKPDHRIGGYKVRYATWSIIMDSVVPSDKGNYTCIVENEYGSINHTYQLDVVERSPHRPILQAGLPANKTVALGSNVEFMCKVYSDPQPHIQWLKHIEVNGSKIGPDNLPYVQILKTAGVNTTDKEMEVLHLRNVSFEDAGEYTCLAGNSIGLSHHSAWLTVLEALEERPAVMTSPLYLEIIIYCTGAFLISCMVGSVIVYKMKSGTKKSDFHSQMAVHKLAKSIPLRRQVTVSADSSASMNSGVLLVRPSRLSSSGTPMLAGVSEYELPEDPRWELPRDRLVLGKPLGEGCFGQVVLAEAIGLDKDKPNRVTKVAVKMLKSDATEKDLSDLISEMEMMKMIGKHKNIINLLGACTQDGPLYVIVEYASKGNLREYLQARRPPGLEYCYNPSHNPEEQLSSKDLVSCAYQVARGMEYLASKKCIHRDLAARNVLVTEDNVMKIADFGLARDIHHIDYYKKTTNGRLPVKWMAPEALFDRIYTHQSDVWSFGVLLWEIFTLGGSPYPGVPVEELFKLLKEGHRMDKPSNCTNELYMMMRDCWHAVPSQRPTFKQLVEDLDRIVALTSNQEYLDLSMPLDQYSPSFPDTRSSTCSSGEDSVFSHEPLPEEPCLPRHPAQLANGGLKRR
T10 sequence (O15111 whole entry): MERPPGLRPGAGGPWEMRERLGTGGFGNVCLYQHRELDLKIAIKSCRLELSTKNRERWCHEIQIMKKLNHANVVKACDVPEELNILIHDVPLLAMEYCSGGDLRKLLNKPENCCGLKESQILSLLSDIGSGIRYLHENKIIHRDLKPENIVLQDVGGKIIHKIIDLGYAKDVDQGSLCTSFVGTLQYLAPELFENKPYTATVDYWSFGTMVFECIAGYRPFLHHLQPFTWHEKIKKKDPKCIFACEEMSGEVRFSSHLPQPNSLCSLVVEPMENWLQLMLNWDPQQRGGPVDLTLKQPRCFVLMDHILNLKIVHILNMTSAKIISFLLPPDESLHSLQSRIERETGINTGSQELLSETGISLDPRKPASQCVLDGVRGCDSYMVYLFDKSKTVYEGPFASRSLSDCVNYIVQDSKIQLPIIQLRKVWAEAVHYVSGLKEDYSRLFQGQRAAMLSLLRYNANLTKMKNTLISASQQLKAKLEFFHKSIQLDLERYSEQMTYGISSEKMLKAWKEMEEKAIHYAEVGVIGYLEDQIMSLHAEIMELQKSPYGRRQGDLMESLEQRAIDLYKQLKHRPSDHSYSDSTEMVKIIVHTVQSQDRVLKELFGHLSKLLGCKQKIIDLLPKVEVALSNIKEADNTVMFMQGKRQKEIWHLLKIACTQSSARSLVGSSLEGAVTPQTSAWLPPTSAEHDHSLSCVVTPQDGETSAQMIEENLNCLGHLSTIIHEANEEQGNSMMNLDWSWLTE
T1 sequence (Q14680 whole entry, species assumed): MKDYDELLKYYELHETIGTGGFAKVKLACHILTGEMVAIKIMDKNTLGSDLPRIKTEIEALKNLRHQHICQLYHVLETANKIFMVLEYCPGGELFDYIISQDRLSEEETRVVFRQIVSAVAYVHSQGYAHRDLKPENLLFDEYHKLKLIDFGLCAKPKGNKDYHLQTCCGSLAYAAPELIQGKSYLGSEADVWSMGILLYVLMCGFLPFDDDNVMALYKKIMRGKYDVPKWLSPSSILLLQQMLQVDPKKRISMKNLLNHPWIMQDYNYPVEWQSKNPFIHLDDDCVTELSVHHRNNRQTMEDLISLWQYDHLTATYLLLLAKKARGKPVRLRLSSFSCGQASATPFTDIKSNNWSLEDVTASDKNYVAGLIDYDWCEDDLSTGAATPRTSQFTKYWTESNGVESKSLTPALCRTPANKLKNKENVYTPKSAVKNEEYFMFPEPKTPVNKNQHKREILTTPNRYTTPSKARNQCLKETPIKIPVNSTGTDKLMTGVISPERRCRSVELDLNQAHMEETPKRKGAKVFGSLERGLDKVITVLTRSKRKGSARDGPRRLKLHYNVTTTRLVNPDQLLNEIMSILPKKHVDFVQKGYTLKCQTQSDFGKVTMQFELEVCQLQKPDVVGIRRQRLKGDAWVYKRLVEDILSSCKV
T22 sequence (O96013 whole entry): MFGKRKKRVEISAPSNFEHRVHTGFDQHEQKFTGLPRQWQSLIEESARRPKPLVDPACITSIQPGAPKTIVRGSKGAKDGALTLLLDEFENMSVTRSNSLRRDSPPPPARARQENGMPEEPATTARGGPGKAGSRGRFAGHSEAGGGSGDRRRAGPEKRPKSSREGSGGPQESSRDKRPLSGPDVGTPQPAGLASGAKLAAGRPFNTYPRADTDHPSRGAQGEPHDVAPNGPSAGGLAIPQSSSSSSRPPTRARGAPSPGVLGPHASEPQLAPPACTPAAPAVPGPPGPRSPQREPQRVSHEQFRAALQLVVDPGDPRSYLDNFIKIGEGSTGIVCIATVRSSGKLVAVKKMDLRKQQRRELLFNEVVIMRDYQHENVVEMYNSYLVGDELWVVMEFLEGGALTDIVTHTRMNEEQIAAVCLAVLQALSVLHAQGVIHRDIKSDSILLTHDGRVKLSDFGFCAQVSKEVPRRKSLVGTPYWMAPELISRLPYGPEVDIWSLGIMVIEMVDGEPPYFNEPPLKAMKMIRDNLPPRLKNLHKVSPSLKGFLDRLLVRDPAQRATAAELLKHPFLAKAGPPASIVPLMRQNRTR
T20 sequence (Q9Y6M4 whole entry): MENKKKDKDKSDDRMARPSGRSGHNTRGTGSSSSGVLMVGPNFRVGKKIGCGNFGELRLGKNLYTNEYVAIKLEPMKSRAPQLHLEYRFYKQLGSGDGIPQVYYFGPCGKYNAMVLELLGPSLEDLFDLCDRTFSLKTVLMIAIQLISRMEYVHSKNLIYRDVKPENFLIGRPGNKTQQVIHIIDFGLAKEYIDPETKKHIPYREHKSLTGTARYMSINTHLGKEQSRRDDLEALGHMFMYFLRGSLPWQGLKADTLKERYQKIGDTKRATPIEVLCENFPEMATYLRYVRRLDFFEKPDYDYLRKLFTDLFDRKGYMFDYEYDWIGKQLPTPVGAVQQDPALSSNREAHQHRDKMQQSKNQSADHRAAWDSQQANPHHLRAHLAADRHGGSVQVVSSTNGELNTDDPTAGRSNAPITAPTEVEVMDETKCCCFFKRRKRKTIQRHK

## O=C(N/N=C1\CCc2c(Cl)ccc(O)c21)c1cccc(S(=O)(=O)N2CCOCC2)c1 [ZY0511, (E)‐N'‐(2, 3‐dihydro‐1H‐inden‐1‐ylidene) benzohydrazides]
LSD1 knockout JHH7 cells
  decrease of sensitivity of JHH7 cells to ZY0511 by LSD1 knockout: 20%
MELK
  inhibition at 1 µM: 1%
cKit (D816H)
  activation at 1 µM: 2%
PKCε
  inhibition at 1 µM: 8%
PDGFRα
  activation at 1 µM: 33%
Wee1
  activation at 1 µM: 11%
DDR2
  inhibition at 1 µM: 5%
CSK
  inhibition at 1 µM: 4%
Fer
  inhibition at 1 µM: 47%
[1]
  inhibition at 1 µM: 6%
IKKα
  activation at 1 µM: 13%
MST3
  inhibition at 1 µM: 35%
Ron
  activation at 1 µM: 7%
ErbB2
  activation at 1 µM: 25%
Pim-1
  inhibition at 1 µM: 15%
DCAMKL3
  inhibition at 1 µM: 3%
NIM1
  inhibition at 1 µM: 2%
Flt3 (D835Y)
  inhibition at 1 µM: 11%
Abl (T315I)
  inhibition at 1 µM: 1%
IGF-1R; IGF-1R, ZY0511 1 µM, read-out: Activation rate
  activation at 1 µM: 185%
IGF-1R; IGF‐1R
  IC50: > 10 µM
CK1γ3
  inhibition at 1 µM: 21%
Axl
  activation at 1 µM: 3%
PAK4
  inhibition at 1 µM: 20%
Abl
  inhibition at 1 µM: 13%
CDK1/CyclinB
  activation at 1 µM: 3%
EGFR (T790M)
  Activation rate: 5%
Hck
  inhibition at 1 µM: 29%
FGFR1
  activation at 1 µM: 1%
PDGFRα (D842V)
  activation at 1 µM: 2%
Hep3B
  inhibition at 0.25 µM: 31%
  inhibition at 0.5 µM: 42%
  inhibition at 1 µM: 49%
  inhibition at 2 µM: 61%
HepG2
  inhibition at 0.25 µM: 47%
  inhibition at 0.5 µM: 65%
  inhibition at 1 µM: 79%
  inhibition at 2 µM: 80%
